The numbers were not newly measured in EP2594258B1, “Oral gel comprising praziquantel” (Veterinärmedizinische Universität Wien, priority 2011, dated 2013), which cites them from elsewhere.

Take `O=C(C1CCCCC1)N1CC(=O)N2CCc3ccccc3C2C1` (racemic) [Praziquantel, (RS)-2-Cyclohexylcarbonyl-2,3,4,6,7,11b-hexahydro-1H-pyrazino(2,1-a) isoquinolin-4-on]: for the setting “chloroform”, the solubility in chloroform result is reported as “easily soluble”. The solubility in dimethylsulfoxide result (dimethylsulfoxide) is reported as “easily soluble”. For the same compound, under “ethanol”, the solubility in ethanol entry is recorded as “soluble”. The solubility in water result (water) is reported as “up to 400 mg/L”.
As for `CCCSc1ccc2nc(NC(=O)OC)[nH]c2c1` [albendazole], the intoxication following treatment result with alpacas was “Lethal intoxications”.
